Data published in patent publication US10221163B2 (priority 2015, dated 2019).
Read-outs that look alike come from different tables or passages of the source.

How the values were obtained:
[1] = target: IMP-1 (Serratia marcescens, UniProt P52699); assay: biochemical; format: biochemical; conditions: CCF2-FA substrate, 2 pM enzyme, 2 hours at 25° C.
Method in brief: (§1)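 Class B activity is measured in the presence of compound by fluorescence with CCF2-FA after a 2-hour incubation at 25° C. IC50 is taken from a 4-parameter fit of semi-logarithmic dose-response data.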

[2] = target: NDM-1 (Klebsiella pneumoniae, UniProt C7C422); assay: biochemical; format: biochemical; conditions: fluorescence assay, CCF2-FA substrate, 1 pM enzyme, 2 hours at 25° C.; read-out: NDM-1 IC50
Chain of NDM-1 (C7C422 whole entry, looked up, species assumed): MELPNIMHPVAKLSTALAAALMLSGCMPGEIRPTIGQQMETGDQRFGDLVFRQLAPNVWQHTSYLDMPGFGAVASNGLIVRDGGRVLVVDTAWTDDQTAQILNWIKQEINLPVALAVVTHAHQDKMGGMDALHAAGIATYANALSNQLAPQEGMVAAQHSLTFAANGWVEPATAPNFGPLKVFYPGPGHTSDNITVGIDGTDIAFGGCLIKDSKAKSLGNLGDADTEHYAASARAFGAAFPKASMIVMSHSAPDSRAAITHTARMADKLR
Method in brief: as §1

[3] = target: VIM-1 (Pseudomonas aeruginosa (strain ATCC 15692 / DSM 22644 / CIP 104116 / JCM 14847 / LMG 12228 / 1C / PRS 101 / PAO1), UniProt A0A0F7KYQ8); assay: biochemical; conditions: CCF2-FA substrate, 30 pM enzyme, 2 hours at 25° C.
Method in brief: as §1

[4] = test system: Escherichia coli expressing NDM-1 (CLB30005, CLB30016); format: cell-based; conditions: with imipenem 1 μg/ml; for Escherichia coli MITC95: NDM-1 strain, 95% inhibition of growth; for Escherichia coli expressing NDM-1 (CLB30016) MITC95: 95% inhibition of bacterial growth
Method in brief: (§2)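 Imipenem 1 μg/ml + inhibitor; MBL-expressing clinical strains in 1.1×CAMHB, inoculum from saline suspension diluted 1:100; 35° C, 22–24 h; absorbance read-out.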

[5] = test system: Klebsiella pneumoniae expressing VIM-1 (IHMA599644); format: cell-based; conditions: for Klebsiella pneumoniae MITC95: VIM-1 strain IHMA599644, with imipenem 1 μg/ml, 95% inhibition of growth; for Klebsiella pneumoniae expressing VIM-1 (IHMA599644) MITC95: with imipenem 1 μg/ml, 95% inhibition of bacterial growth
Method in brief: as §2

[6] = test system: Serratia marcescens expressing IMP-1 (CL5741); format: cell-based; conditions: for Serratia marcescens MITC95: IMP-1 strain CL5741, with imipenem 1 μg/ml, 95% inhibition of growth; for Serratia marcescens expressing IMP-1 (CL5741) MITC95: with imipenem 1 μg/ml, 95% inhibition of bacterial growth
Method in brief: as §2

[7] = test system: Pseudomonas aeruginosa efflux+ (MB9798), IMP-1; format: cell-based; set-up: Concentration of metallo-β-lactamase inhibitor which restores susceptibility of efflux + (MB9798) strain to imipenem: unit not given here; conditions: C, D serine β-lactamase inhibitor closely related to relebactam; for P. aeruginosa expressing IMP-1, efflux + (MB9798) MITC95: concentration restoring susceptibility to imipenem at 2 μg/mL in the presence of a class A
Method in brief: (§3)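 PAO1 pair, broth microdilution; fixed β-lactam (imipenem/ceftazidime) at ~CLSI breakpoint + fixed class A/C BLI for AmpC; serial MBLi titration; endpoint = MBLi conc. restoring susceptibility; MB9798:MB9799 ratio = efflux liability.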

[8] = test system: Pseudomonas aeruginosa efflux− (MB9799), IMP-1; format: cell-based; conditions: C, D serine β-lactamase inhibitor closely related to relebactam; for P. aeruginosa expressing IMP-1, efflux − (MB9799) MITC95: concentration restoring susceptibility to imipenem at 2 μg/mL in the presence of a class A
Method in brief: as §3

[9] = test system: Pseudomonas aeruginosa MB9798 vs MB9799
Method in brief: as §3

[10] = fluorescence assay, read-out: IMP-1 IC50
[11] = fluorescence assay, read-out: VIM-1 IC50
[12] = ratio MITC95 PA_9798/MITC95 PA_9799

Chain of IMP-1 (P52699 whole entry, looked up, species assumed): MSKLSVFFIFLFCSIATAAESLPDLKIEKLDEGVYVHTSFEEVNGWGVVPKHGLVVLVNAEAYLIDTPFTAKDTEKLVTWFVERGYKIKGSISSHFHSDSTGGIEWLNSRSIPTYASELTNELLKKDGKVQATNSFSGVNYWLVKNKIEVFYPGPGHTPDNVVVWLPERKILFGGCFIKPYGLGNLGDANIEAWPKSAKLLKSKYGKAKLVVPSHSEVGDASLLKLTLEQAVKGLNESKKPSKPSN

C[C@H](CCN)NS(=O)(=O)c1ccc(-c2cccc3[nH]c(N)nc23)c(-c2nn[nH]n2)c1S(N)(=O)=O [Example 266, (R)-4-(2-amino-1H-benzo[d]imidazol-4-yl)-N1-(4-aminobutan-2-yl)-3-(2H-tetrazol-5-yl)benzene-1,2-disulfonamide]
IC50 [1, 10]: 0.477 nM
IC50 [2]: 0.0282 nM
IC50 [3, 11]: 0.115 nM
Escherichia coli MITC95 [4]: 0.7813 µM
Klebsiella pneumoniae MITC95 [5]: 0.7813 µM
Serratia marcescens MITC95 [6]: 0.7813 µM
P. aeruginosa expressing IMP-1, efflux + (MB9798) MITC95 [7]: 0.3906 µM
P. aeruginosa expressing IMP-1, efflux − (MB9799) MITC95 [8]: 0.7813 µM
Efflux ratio [9, 12]: 0.50

C[C@@H](CN)NS(=O)(=O)c1ccc(-c2cccc3sc(N)nc23)c(-c2nn[nH]n2)c1S(N)(=O)=O [Example 389, 4-(2-amino-1,3-benzothiazol-4-yl)-N^1-[(1S)-2-amino-1-methylethyl]-3-(2H-tetrazol-5-yl)benzene-1,2-disulfonamide]
IC50 ([1]; IMP-1 IC50, fluorescence assay): 1.81 nM
IC50 [2]: 0.289 nM
IC50 ([3]; VIM-1 IC50, fluorescence assay): 0.744 nM
Escherichia coli MITC95 [4]: 3.125 µM
Klebsiella pneumoniae MITC95 [5]: 3.125 µM
Serratia marcescens MITC95 [6]: 3.125 µM
Concentration of metallo-β-lactamase inhibitor which restores susceptibility of efflux + (MB9798) strain to imipenem ([7]; efflux+ MB9798, imipenem at 2 μg/mL, in the presence of a class A): 1.563
Concentration of metallo-β-lactamase inhibitor which restores susceptibility of efflux − (MB9799) strain to imipenem ([8]; efflux− MB9799, imipenem at 2 μg/mL, in the presence of a class A): 1.563
Efflux ratio ([9]; fold difference between efflux+ (MB9798) and efflux− (MB9799) strains, imipenem at 2 μg/mL): 1.00

NCC(CN)NS(=O)(=O)c1ccc(-c2cccn3ccnc23)c(-c2nn[nH]n2)c1S(N)(=O)=O [Example 386, N1-(1,3-diaminopropan-2-yl)-4-(imidazo[1,2-c]pyridin-8-yl)-3-(2H-tetrazol-5-yl) benzene-1,2-disulfonamide]
IC50 [1, 10]: 0.141 nM
IC50 [2]: 0.133 nM
IC50 ([3]; VIM-1 IC50, fluorescence assay): 0.168 nM
Escherichia coli MITC95 [4]: 0.9766 µM
Klebsiella pneumoniae MITC95 [5]: 3.125 µM
Serratia marcescens MITC95 [6]: 1.563 µM
P. aeruginosa expressing IMP-1, efflux + (MB9798) MITC95 [7]: 1.563 µM
P. aeruginosa expressing IMP-1, efflux − (MB9799) MITC95 [8]: 1.563 µM
Efflux ratio [9, 12]: 1.00

C[C@H](CN)NS(=O)(=O)c1ccc(-c2ccnc(N)c2)c(-c2nn[nH]n2)c1S(N)(=O)=O [Example 317, (R)—N1-(1-aminopropan-2-yl)-4-(2-aminopyridin-4-yl)-3-(2H -tetrazol-5-yl) benzene-1,2-disulfonamide]
IC50 [1, 10]: 0.495 nM
IC50 [2]: 0.17 nM
IC50 [3, 11]: 0.133 nM
Escherichia coli MITC95 [4]: 0.7813 µM
Klebsiella pneumoniae MITC95 [5]: 3.125 µM
Serratia marcescens MITC95 [6]: 1.563 µM
P. aeruginosa expressing IMP-1, efflux + (MB9798) MITC95 [7]: 1.563 µM
P. aeruginosa expressing IMP-1, efflux − (MB9799) MITC95 [8]: 3.125 µM
Efflux ratio [9, 12]: 0.50

NC[C@H](N)CNS(=O)(=O)c1ccc(-c2cnc(N)s2)c(-c2nn[nH]n2)c1S(N)(=O)=O [Example 372, (S)-4-(2-aminothiazol-5-yl)-N1-(2,3-diaminopropyl)-3-(2H-tetrazol-5-yl)benzene-1,2-disulfonamide]
IC50 [1, 10]: 1.27 nM
IC50 [2]: 0.575 nM
IC50 [3, 11]: 0.914 nM
Escherichia coli MITC95 [4]: 1.563 µM
Klebsiella pneumoniae MITC95 [5]: 3.125 µM
Serratia marcescens MITC95 [6]: 1.563 µM
P. aeruginosa expressing IMP-1, efflux + (MB9798) MITC95 [7]: 1.563 µM
P. aeruginosa expressing IMP-1, efflux − (MB9799) MITC95 [8]: 0.7813 µM
Efflux ratio [9, 12]: 2.00

Nc1cncc(-c2ccc(S(=O)(=O)N[C@@H]3CCNC3)c(S(N)(=O)=O)c2-c2nn[nH]n2)c1 [Example 219, (R)-4-(5-aminopyridin-3-yl)-N1-(pyrrolidin-3-yl)-3-(2H-tetrazol-5-yl)benzene-1,2-disulfonamide]
IC50 [1, 10]: 1.93 nM
IC50 [2]: 0.366 nM
IC50 [3, 11]: 0.209 nM
Escherichia coli expressing NDM-1 (CLB30016) MITC95 [4]: 1.563 µM
Klebsiella pneumoniae expressing VIM-1 (IHMA599644) MITC95 [5]: 1.563 µM
Serratia marcescens expressing IMP-1 (CL5741) MITC95 [6]: 1.563 µM
P. aeruginosa expressing IMP-1, efflux + (MB9798) MITC95 [7]: 1.563 µM
P. aeruginosa expressing IMP-1, efflux − (MB9799) MITC95 [8]: 1.563 µM
Efflux ratio [9, 12]: 1.00

NC[C@H](CO)NS(=O)(=O)c1ccc(-c2cccnc2N)c(-c2nn[nH]n2)c1S(N)(=O)=O [Example 215, (R)-N1-(1-amino-3-hydroxypropan-2-yl)-4-(2-aminopyridin-3-yl)-3-(2H-tetrazol-5-yl)benzene-1,2-disulfonamide]
IC50 [1, 10]: 2.12 nM
IC50 [2]: 0.175 nM
IC50 [3, 11]: 0.222 nM
Escherichia coli expressing NDM-1 (CLB30016) MITC95 [4]: 0.1953 µM
Klebsiella pneumoniae expressing VIM-1 (IHMA599644) MITC95 [5]: 3.125 µM
Serratia marcescens expressing IMP-1 (CL5741) MITC95 [6]: 0.3906 µM
P. aeruginosa expressing IMP-1, efflux + (MB9798) MITC95 [7]: 1.563 µM
P. aeruginosa expressing IMP-1, efflux − (MB9799) MITC95 [8]: 1.563 µM
Efflux ratio [9, 12]: 1.00

Nc1nc2c(-c3ccc(S(=O)(=O)N[C@@H]4CN[C@H](CO)C4)c(S(N)(=O)=O)c3-c3nnn[nH]3)cccc2[nH]1 [Example 175, 4-(2-amino-1H-benzo[d]imidazol-4-yl)-N^1-((3S,5S)-5-(hydroxymethyl)pyrrolidin-3-yl)-3-(1H-tetrazol-5-yl)benzene-1,2-disulfonamide]
IC50 [1, 10]: 1 nM
IC50 [2]: 0.127 nM
IC50 ([3]; VIM-1 IC50, fluorescence assay): 0.334 nM
Escherichia coli expressing NDM-1 (CLB30016) MITC95 [4]: 0.7813 µM
Klebsiella pneumoniae expressing VIM-1 (IHMA599644) MITC95 [5]: 3.125 µM
Serratia marcescens expressing IMP-1 (CL5741) MITC95 [6]: 1.563 µM
P. aeruginosa expressing IMP-1, efflux + (MB9798) MITC95 [7]: 0.7813 µM
P. aeruginosa expressing IMP-1, efflux − (MB9799) MITC95 [8]: 1.563 µM
Efflux ratio [9, 12]: 0.50

CN(C)C(=O)CNS(=O)(=O)c1ccc(-c2cccc3sc(N)nc23)c(-c2nnn[nH]2)c1S(N)(=O)=O [Example 36, N^2-{[4-(2-amino-1,3-benzothiazol-4-yl)-2-sulfamoyl-3-(1H-tetrazol-5-yl)phenyl]sulfonyl}-N,N-dimethylglycinamide]
IC50 [1, 10]: 0.247 nM
IC50 [2]: 0.0369 nM
IC50 ([3]; VIM-1 IC50, fluorescence assay): 0.166 nM
Escherichia coli expressing NDM-1 (CLB30016) MITC95 [4]: 25 µM
Klebsiella pneumoniae expressing VIM-1 (IHMA599644) MITC95 [5]: 12.5 µM
Serratia marcescens expressing IMP-1 (CL5741) MITC95 [6]: 3.125 µM
P. aeruginosa expressing IMP-1, efflux + (MB9798) MITC95 [7]: 3.125 µM
P. aeruginosa expressing IMP-1, efflux − (MB9799) MITC95 [8]: 3.125 µM
Efflux ratio [9, 12]: 1.00

CC(N)CNS(=O)(=O)c1ccc(-c2cccc3sc(N)nc23)c(-c2nnn[nH]2)c1S(N)(=O)=O.O=C(O)C(F)(F)F (stereo not drawn) [Example 109, 1-(4-(2-aminobenzo[d]thiazol-4-yl)-2-sulfamoyl-3-(1H-tetrazol-5-yl)phenylsulfonamido)propan-2-aminium 2,2,2-trifluoroacetate]
IC50 [1, 10]: 0.44 nM
IC50 [2]: 0.0821 nM
IC50 ([3]; VIM-1 IC50, fluorescence assay): 0.322 nM
Escherichia coli expressing NDM-1 (CLB30016) MITC95 [4]: 1.563 µM
Klebsiella pneumoniae expressing VIM-1 (IHMA599644) MITC95 [5]: 3.125 µM
Serratia marcescens expressing IMP-1 (CL5741) MITC95 [6]: 1.563 µM
P. aeruginosa expressing IMP-1, efflux + (MB9798) MITC95 [7]: 0.7813 µM
P. aeruginosa expressing IMP-1, efflux − (MB9799) MITC95 [8]: 1.563 µM
Efflux ratio [9, 12]: 0.50
